Positions of bridges follow the written chain, without caps; N, C: chain ends. Non-standard residues stand in square brackets, D forms with d. Residues, ends and D or L forms follow the SMILES beside them. Primed or numbered codes have the meaning given here. *: point of attachment. X1 = CC1(C)C(/C=C/C=C/C=C/C=C2/N(CCC(=O)*)c3ccc4ccccc4c3C2(C)C)=[N+](CCC(=O)[O-])c2ccc3ccccc3c21; Cypate′ = not defined here

For data set [1], the system named is breast cancer patient-derived xenograft. The data set is described as follows: In vivo NIR imaging of tumor retention. The following applies: for tumor retention: control experiments, patient-derived xenograft. On the set-up: species or system mice. The method, then:
To establish the various tumor models, nude, Balb/c, or C57BL6 mice were injected with 10^5-10^7 tumor cells subcutaneously on unilateral or bilateral flanks. In some cases, spontaneous tumor models were used. Animals injected subcutaneously with saline served as sham tumor controls. For near-infrared imaging, 100 μL volumes of 60 μM LS301 or cypate in PBS were injected intravenously by lateral tail vein, and animals were imaged using a Pearl Small Animal Imager (LI-COR Biotechnology, Lincoln, NE, USA) at the indicated time points. In some experiments, probes were formulated in 1% albumin in PBS. Animals were shaved using commercially available hair removal equipment and products before imaging. For experiments involving further tissue analysis, animals were anesthetized with isoflurane and euthanized by cervical dislocation under anesthesia. Organs were harvested by surgical dissection. For quantitative organ biodistribution studies, individual regions of interest were drawn around each organ of interest, and fluorescence was quantified using the Pearl Small Animal Imager software.

For data set [2], the system named is diverse tumors. The data set can be described thus: LS838 fluorescence and tumor retention.
Data set [3] has as its system heart. The following applies: in vivo.
The test system of data set [4] is 4T1 luc/GFP cells. The data set is described as follows: In vitro blocking of LS301 binding and internalization. The format is cell-based, murine. Here is the method: For in vitro blocking studies of LS301, 4T1 luc/GFP cells were treated for 24 h with LS301 alone, blocking peptide LCKLSL plus LS301, scrambled blocking peptide LGKLSL plus LS301, or unlabeled LS301 analog LS637 plus LS301. Cells were prepared for confocal microscopy.

In data set [5] the test system is lung (A549), breast (MDA-MB-231 and 4T1), and myeloid leukemia (HL60) cell lines. The data set is described as follows: Cellular uptake in cancer cell lines, live-cell imaging. Type of data set: cell-based. The following applies: A549, MDA-MB-231, 4T1, HL60. The method, then: In general, cultured cancer cells were grown and incubated with the indicated amount of probe in Lab-Tek 8-chambered slides for the indicated time durations. Cells were washed with PBS at selected time points and underwent conventional slide preparation, ICC if indicated, and viewing under epifluorescence or confocal. For live-cell imaging of LS301, internalization at 37° C. in human dermal fibroblasts (Coriell Cell Technologies) and tumor cells including 4T1luc, MDA-MB-231, 5TGM, A549, and HL60 (ATCC) cells were cultured in appropriate media supplemented with 10% […] and penicillin/streptomycin and incubated at 37° C. in 5% CO2 incubator. The cells were grown on Lab-Tek 8-chamber slides (Nunc Inc. Rochester, NY) in the culture medium overnight before the experiment. The compounds were dissolved in 20% DMSO in […] PBS (pH 7.4) (Sigma, St. Louis, MO) for stocking solution and mixed with culture medium to reach the final concentration. Cells were incubated with 1 μM compounds in chamber slides at different time points at 37° C. After LS301 treatment, the culture media was removed and followed by adding culture media containing SYTO 13 nuclear dye from (Thermo Fisher Scientific, Waltham, MA) for 45 minutes at 37° C. For assessing cellular colocalization of LS301 with lipid rafts, the Vybrant AlexaFluor 488 Lipid Raft Labeling Kit (Thermo Fisher Scientific, Waltham, MA, USA) was used per the manufacturer's instructions. […]. LS301 and AlexaFluor 488 fluorescence were imaged using the cypate filter set (Ex/Em 750-800 nm/818-873 nm) and fluorescein isothiocyanate (FITC) filter set (Ex/Em 460-500/510-560 nm), respectively.

On to “Cypate-cyclo(Cys-Arg-Gly-Asp-Ser-Pro-Cys)-Lys-OH ({Cypate′}-CRGDSPCK-OH; disulfide 1-7) [scrambled LS301 peptide analog]”, for which the tumor retention result in data set [1] was “not retained”.
For `CC1(C)C(/C=C/C=C/C=C/C=C2/N(CCC(=O)N[C@@H]3CSSC[C@@H](C(=O)N[C@@H](Cc4ccc(O)cc4)C(=O)O)NC(=O)[C@@H]4CCCN4C(=O)[C@H](CO)NC(=O)[C@H](CC(=O)O)NC(=O)[C@H](CCCNC(=N)N)NC(=O)CNC3=O)c3ccc4ccccc4c3C2(C)C)=[N+](CCC(=O)[O-])c2ccc3ccccc3c21` [LS838, cypate-Cyclo(Cys-Gly-Arg-Asp-Ser-Pro-Cys)-Tyr-OH] (X1-[dC]GRDSPCY-OH; disulfide 1-7), in data set [2], the retention in tumors entry was “selectively remains in diverse tumors without significant loss of fluorescence over time”.
For `COc1cccc2c1C(=O)c1c(O)c3c(c(O)c1C2=O)C[C@@](O)(C(=O)CO)C[C@@H]3O[C@H]1C[C@H](NC(=O)CC[N+]2=C(/C=C/C=C/C=C/C=C3/N(CCC(=O)N[C@@H]4CSSC[C@@H](C(=O)N[C@@H](CCCCN)C(=O)O)NC(=O)[C@@H]5CCCN5C(=O)[C@H](CO)NC(=O)[C@H](CC(=O)O)NC(=O)[C@H](CCCNC(=N)N)NC(=O)CNC4=O)c4ccc5ccccc5c4C3(C)C)C(C)(C)c3c2ccc2ccccc32)[C@H](O)[C@H](C)O1` [LS766, doxorubicin-cypate-cyclic(DCys-Gly-Arg-Asp-Ser-Pro-Cys)-Lys-OH], in data set [3], the “accumulation in the heart” value is recorded as “does not accumulate in the heart”.
Turning to LCKLSL, in data set [4], the “effect on binding and internalization of LS301 in cells” value was “inhibited the binding and internalization of LS301”.
As to `CC1(C)C(/C=C/C=C/C=C/C=C2/N(CCC(=O)O)c3ccc4ccccc4c3C2(C)C)=[N+](CCC(=O)[O-])c2ccc3ccccc3c21` [Cypate], the “retention in cell lines” value in data set [5] is reported as “only transient retention”. Further, the tumor retention result in data set [1] is recorded as “not retained”. Besides, the “tumor retention with or without albumin formulation” value in data set [1] (in vivo) is reported as “did not retain”.
